Common to all, as to format: cell-based
In assay [1] the target is T1, GluR3 (GluR3o, flop variant), homomeric AMPA-type receptor (Rattus norvegicus, UniProt P19492). Description: two-electrode voltage clamp, Xenopus oocytes, agonist-evoked current. Conditions: 100 μM, −80 mV, pH 7.4.
Assay [2] has as its target GluR6 (GluR6(R), edited version), homomeric KA-type receptor (Rattus norvegicus, UniProt P42260, Q621R). The assay is described as follows: two-electrode voltage clamp, Xenopus oocytes, block of kainate current.
Assay [3] addresses T1, GluR3 (GluR3o, flop variant), homomeric AMPA-type receptor. The description is as above.
Assay [4] concerns AMPA receptors expressed by rat cerebral cortex mRNA. The assay is described as above. Conditions: competitive antagonist; 100 μM kainate; −80 mV; pH 7.4; 19–21°C.
The subject of assay [5] is metabotropic glutamate receptors (mGluRs, group I) expressed by rat brain mRNA. The note with it: antagonist test, 10 μM quisqualate in the cerebellum mRNA test.

Sequence of GluR6 (GluR6(R), edited version), homomeric KA-type receptor (P42260 32-908 Q621R): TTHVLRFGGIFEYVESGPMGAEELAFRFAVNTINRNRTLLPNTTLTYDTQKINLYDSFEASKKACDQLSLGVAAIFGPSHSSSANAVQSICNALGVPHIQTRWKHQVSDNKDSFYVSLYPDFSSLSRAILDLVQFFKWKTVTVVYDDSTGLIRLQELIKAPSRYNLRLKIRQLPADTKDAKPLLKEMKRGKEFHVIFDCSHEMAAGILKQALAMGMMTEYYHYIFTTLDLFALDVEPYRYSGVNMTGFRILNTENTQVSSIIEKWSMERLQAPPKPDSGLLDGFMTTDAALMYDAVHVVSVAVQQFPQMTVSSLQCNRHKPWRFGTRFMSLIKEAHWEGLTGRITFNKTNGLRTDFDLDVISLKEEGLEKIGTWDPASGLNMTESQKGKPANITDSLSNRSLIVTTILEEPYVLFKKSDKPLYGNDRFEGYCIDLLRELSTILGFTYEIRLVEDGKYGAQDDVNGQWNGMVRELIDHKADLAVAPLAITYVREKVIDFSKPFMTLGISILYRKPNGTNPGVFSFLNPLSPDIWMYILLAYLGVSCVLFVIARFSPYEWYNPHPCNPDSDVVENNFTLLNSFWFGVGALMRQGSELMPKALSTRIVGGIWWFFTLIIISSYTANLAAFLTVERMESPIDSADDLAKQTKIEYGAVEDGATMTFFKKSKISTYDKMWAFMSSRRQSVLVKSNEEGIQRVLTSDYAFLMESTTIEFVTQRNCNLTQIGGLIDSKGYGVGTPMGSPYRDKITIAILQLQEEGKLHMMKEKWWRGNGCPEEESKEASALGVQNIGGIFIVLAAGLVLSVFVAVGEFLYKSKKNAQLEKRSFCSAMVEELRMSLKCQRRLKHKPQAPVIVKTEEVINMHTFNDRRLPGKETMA

As to `C=C(C)[C@H]1CN[C@H](C(=O)O)[C@H]1CC(=O)O` [kainate], in assay [1], the “two-electrode voltage clamp, Xenopus oocytes, agonist-evoked current” value is on record as “GluR3 receptors, similarly to the AMPA receptors expressed by mRNA, generated large KA-currents”.
In the case of `N[C@@H](C(=O)O)[C@H](O)[C@@]1(C(=O)O)CC[C@H](C[C@H](NC(=O)c2cc(Cl)c(O)c(Cl)c2)C(=O)O)N1` [(−)-kaitocephalin], the half-maximal inhibitory concentration (IC50) in assay [2] was roughly 100000 nM; in assay [3], 502 ± 55 nM; in assay [4] it was 242 ± 37 nM; in assay [5], greater than 100000 nM.

Source of the values: publication PMC2860192 (ACS chemical neuroscience, 2010).
